{"source": "patent US12558345B2", "about": "“CHK1/2 inhibitors for use in the treatment of neuroblastomas and/or soft tissue sarcomas” (Eli Lilly and Company, priority 2015, dated 2026)", "key": {"SJCRH-30 RMS xenograft": {"tested_on": "SJCRH-30 RMS xenograft", "assay_type": "in vivo", "settings": "SJCRH-30, RMS", "method": "Expand human RMS cancer cells SJCRH-30 (St. Jude Children's Research Hospital) in culture, harvest, and inject 5×10^6 cells in 200 μL of HBSS subcutaneously into the right rear flank of female athymic nude mice (20-22 g, Harlan Laboratories).\nFor all studies, measure tumor growth and body weight twice per week beginning on the seventh day after implantation. When tumor size reaches 150-300 mm^3, randomize animals and group into groups of 4-7 animals. Prepare test compound in an appropriate vehicle (e.g. vehicle can be 20% Captisol® in sterile water) and administer subcutaneously for three consecutive days followed by a four day dosing holiday and repeat for a minimum of four weeks. Tumor response is determined by tumor volume measurement performed twice per week during the course of treatment.\nThe vehicle used in this study is 20% Captisol® in sterile water and is administered subcutaneously for three consecutive days followed by a four day dosing holiday and repeated for a minimum of four weeks. […] The treatment period lasts 4 weeks."}, "HT-29 cells": {"tested_on": "HT-29 cells", "test": "ECtfs (Two-Fold Sensitization) Assay", "assay_type": "cell-based", "settings": "gemcitabine alone", "protocol": "An inhibitor of CHK1 can potentiate the anti-proliferative activity of gemcitabine (or other cytotoxics) through abrogation of the intra-S phase checkpoint, resulting in sustained and increased DNA damage. The capacity for continued tumor cell proliferation after DNA damage can be analyzed by determining the ability of cells to replicate their DNA. […] In this assay, cells are treated with gemcitabine, and then with the compound of Example 2. Following a recovery period, cells are assayed for the ability to incorporate radioactive thymidine into DNA during S phase. The ECtfs parameter is a measure of the concentration of a CHK1 inhibitor necessary to reduce by half the GI90 concentration of gemcitabine, measured in this assay in the absence of CHK1 inhibition. HT-29 cells (obtained from ATCC), are grown in RPMI 1640 plus (Gibco™) 10% (v/v) heat inactivated FBS. These cells are plated at 1.3×10^3 per well on Corning Costar 96-well tissue culture plates. After plating the cells, the tissue culture plates are held at room temperature for 45 minutes, before returning to 37° C. Plates are incubated for 24 hours prior to gemcitabine addition. Before gemcitabine addition, medium is removed from all wells and replaced with 150 μL per well of fresh RPMI medium. Gemcitabine stocks at 10 mM are prepared in PBS. Gemcitabine dilutions were prepared at 4× concentrations in RPMI medium and added to wells at 50 μL per well. The highest final concentration of gemcitabine used is 80 μM and dilutions proceed by four-fold steps. Two hours later, gemcitabine-containing medium is removed from the wells and replaced with 150 μL per well of fresh RPMI medium. […] The volume of addition is 50 μL. Compound dilutions proceed by two-fold steps, starting at 5000 nM. […] Twenty μL of this solution is added to each well, yielding 1 µCi/well of ^3H-thymidine. Cells are labeled for twenty-two hours. The medium containing ^3H-thymidine is thoroughly removed from the wells. The plates are then frozen at −20° C., for several hours. To harvest the DNA containing incorporated ^3H-thymidine, plates are thawed for several minutes, and then 120 μL per well of 0.1 N NaOH is added to each well. Each plate is then incubated at 37° C., with slow mixing on a rotator, for 10 minutes. DNA is harvested with a Filtermate 196 Harvester (PerkinElmer) and collected on 96-well Unifilter GF/C plates (PerkinElmer #6005174). The wells of the tissue culture plate on which cells had been labeled are washed with water (5×). The Unifilter plate membranes are washed with an additional 4.5 mL per well (3×1.0 mL and finally a 1.5 mL wash). The Unifi is sealed with a Backseal adhesive sheet (PerkinElmer), and the 50 μL/well of MicroScint-20 (Perkin Elmer) is added. Each plate is then sealed with a Topseal clear adhesive sheet (PerkinElmer). Plates are counted on a Topcount scintillation counter (PerkinElmer), at 1 minute per well. ^3H-thymidine counts per minute (cpm) are exported into Prism (GraphPad) for analysis and plotting. […] For plotting the data in Prism, the gemcitabine concentrations are transformed to log values, and dose-response curves are fit by non-linear regression. Neither top nor bottom fits are constrained. The ECtfs value is 0.3 nM."}}, "note": "Where two headings read alike, the source gives them in different places.", "data": [{"smiles": "O=P1(NCCCl)OCCCN1CCCl", "note": "(centres unmarked) [ifosphamide, reference compound]", "values": [{"measurement": "% T/C", "setting": "SJCRH-30 RMS xenograft; comparator day 46", "value": 34, "unit": "%"}]}, {"smiles": "CCc1c2c(nc3ccc(OC(=O)N4CCC(N5CCCCC5)CC4)cc13)-c1cc3c(c(=O)n1C2)COC(=O)[C@]3(O)CC", "note": "[irinotecan, reference compound]", "values": [{"measurement": "% T/C", "setting": "SJCRH-30 RMS xenograft; comparator day 46", "value": 12, "unit": "%"}]}, {"smiles": "COc1cccc2c1C(=O)c1c(O)c3c(c(O)c1C2=O)C[C@@](O)(C(=O)CO)C[C@@H]3O[C@H]1C[C@H](N)[C@H](O)[C@H](C)O1", "note": "[Doxorubicin, reference compound]", "values": [{"measurement": "% T/C", "setting": "SJCRH-30 RMS xenograft; comparator day 56", "value": 16, "unit": "%"}]}, {"smiles": "Nc1ccn([C@@H]2O[C@H](CO)[C@@H](O)C2(F)F)c(=O)n1", "note": "[gemcitabine, reference compound]", "values": [{"measurement": "percentage of proliferation inhibition", "setting": "HT-29 cells; HT29 cells", "value": 52, "unit": "%"}, {"measurement": "EC50", "setting": "HT-29 cells; Homo sapiens, HT-29, HT29 colon carcinoma cells", "value": 37, "unit": "nM"}]}]}
